# Reference: patent publication US20260207720A1, “COMPOSITIONS AND METHODS FOR TREATING FUNGAL INFECTIONS” (MUCPharm Pty Ltd, priority 2022, published 2026)
# What was measured:
# [1] = tested on: Mucormycete group (Rhizopus microspores, Fusarium solani cx, Rhizopus arrhizus and Candida krusei QC); assay: Susceptibility assay of bromelain and acetylcysteine alone or together (Example 1); format: cell-based; conditions: in isolation, R. microsporus, read-out: MIC required to inhibit Mucormycete growth
# Method: Unless otherwise described, fungal cultures were grown on potato dextrose agar plates at 35° C. until mature (appearance of conidia) and used to prepare suspensions in sterile water. Suspensions were diluted in RPMI 1:60. These suspensions were then added in equal volume to solutions containing the candidate species described above and incubated at 35° C. for 24 hr. Plates were then analysed for fungal growth inhibition and MIC values determined. […] Initial tests were conducted on one strain of Rhizopus microsporus, one strain of Rhizopus arrhizus and one strain of Candida krusei QC, all sourced clinically.
# [2] = tested on: Aspergillus fumigatus (ATCC strain 13697); assay: Broth dilution susceptibility test, MIC and percent growth (Example 7); format: cell-based
# Method: A. Preparation of inoculum: • 1. Candida glabrata was grown on Sabouraud dextrose agar (SDA) at 37° C. for 24-48 hrs. • 2. Following this, 5 colonies of 1 mm diameter were picked and suspended in 5 mL sterile saline (0.9% saline) and vortexed for 15 seconds. • 3. Working suspension is prepared as a 1:100 dilution from stock suspension with RPMI 1640 culture medium. • 4. The cell density is adjusted with a spectrophotometer to the transmittance produced by a 0.5 McFarland standard (0.08 to 0.1) OD at 625 nm wavelength.
# • 1. For Bromelain, a stock concentration of 1 mg/ml Bromelain solution was prepared in RPMI media and diluted to test concentrations of 62.4, 31.2, 15.6 and 7.8 μg/ml in RPMI 1640 media. • 2. Acetylcysteine stock concentration is 200 mg/ml, diluted to 40, 20, 10, and 5 mg/ml concentrations in RPMI 1640 medium. • 3. These concentrations are prepared at 2× of the required concentrations in the final assay plate.
# Antifungal stock concentrations are as follows— • 1. Amphotericin B, Stock concentration: 250 μg/ml in water. • 2. Posaconazole, Original concentration: 300 mg in 16.7 ml, Working stock concentration: 1 mg/ml in DMSO. • 3. Fluconazole, Original concentration: 100 mg in 50 ml, Working stock concentration: 1 mg/ml in DMSO. • 4. The final concentration was prepared in RPMI 1640 media and concentrations range was 0.01-0.5 μg/mL for amphotericin B, 0.01-2 μg/mL for posaconazole and 0.01-64 μg/mL for fluconazole. • 5. These concentrations were prepared at 2× of the required concentrations in the final assay plate.
# • 1. Wells of the 96-well plates were inoculated with appropriate concentrations and volumes of drugs. • 2. Sterility control and growth controls are included in each plate. • 3. Each 96-well plate (except the control wells) contains 100 μL of double strength (twice the final antifungal drug) concentrations. • 4. 100 μL of the fungal suspension is added to 96-well plates (except the sterility control wells). • 5. The growth control wells contained 100 μL of sterile drug-free medium and 100 μL of inoculum suspension, while the sterility control wells contained 200 μl of sterile drug-free medium. • 6. Plates are then incubated at 37° C. and read at 625,430, and 530 nm wavelengths. • 7. Data from 24 hours and absorbance at 625 nm were used for analysis.
# These experiments were conducted to determine the efficacy of BromAc alone and in combination with existing antifungal drugs against Aspergillus fumigatus (ATCC strain 13697).
# The method used in these experiments is essentially the same as that described above in Example 5. In these experiments, however, echinocandins such as […] Caspofungin are used in place of the azole antifungals described in earlier examples.
MIC [1] [µg/mL],Structure (SMILES),"MIC ([2]; FIGS. 13a, 14a) [µg/mL]","effect at lower concentrations (in words) ([2]; Voriconazole 1 μg/ml and 0.5 μg/ml, Caspofungin 0.25 μg/ml and 0.125 μg/ml)"
10,"CC(=O)N[C@@H](CS)C(=O)O [Acetylcysteine, N-acetylcysteine]",–,–
–,CC[C@H](C)C[C@H](C)CCCCCCCCC(=O)N[C@H]1C[C@@H](O)[C@@H](NCCN)NC(=O)[C@@H]2[C@@H](O)CCN2C(=O)[C@H]([C@H](O)CCN)NC(=O)[C@H]([C@H](O)[C@@H](O)c2ccc(O)cc2)NC(=O)[C@@H]2C[C@@H](O)CN2C(=O)[C@H]([C@@H](C)O)NC1=O [Caspofungin],> 1,almost no inhibitory effect
